According to patent EP3323812B1, “ARYLALKYL-AND ARYLOXYALKYL-SUBSTITUTED EPITHELIAL SODIUM CHANNEL BLOCKING COMPOUNDS” (Parion Sciences, Inc., priority 2012, dated 2014):

Key:
[1] = biological target: Muc5B (Homo sapiens, UniProt Q9HC84); settings: in vitro; also printed as 3.26%; cited from earlier work
[2] = tested on: CBE cells; assay: Airway hydration: apical surface liquid retention on primary CBE cells at air-liquid interface; format: cell-based, canine; settings: 10 µM, after 8 hours, 50 µl applied to apical surface of CBE cells
Experimental: Primary CBE cells are plated onto collagen-coated, porous membranes maintained at an air-liquid interface to assess maintenance of surface liquid volume over time. […] To reduce artifact due to an apical carbohydrate osmotic gradient upon water loss, glucose was not included in the apical buffer.

Row | Compound | concentration required to fully reduce Muc5B [1] [mM] | surface liquid retained (% initial volume) [2] [%]
1 | CC(=O)N[C@@H](CS)C(=O)O [NAC, N-acetyl cysteine] | 200 | 
2 | N=C(N)NC(=O)c1nc(Cl)c(N)nc1N [Amiloride, amiloride] |  | 25±19.2
